# Assay results from PubChem BioAssay AID504505 (The Scripps Research Institute Molecular Screening Center, 2011).
# System: Abhydrolase domain-containing protein 11 (ABHD11), mouse
# Test: cellular mouse ABHD11 activity inhibitors – cell-based, gel-based fluorescent ABPP, selectivity assay for LYPLA1 inhibitor project, late-stage follow-up (AID 504505)
# Settings: mouse cells, ABHD11 labeling, at 0.03 µM, hits give high values
compound,measurement,value
CCC1CCCCN1C(=O)n1ncc(C(O)(c2ccccc2)c2ccccc2)n1 (stereo unspecified),inhibition,100%
